Measurements from US20160102103A1, “SUBSTITUTED PYRIDINE COMPOUNDS HAVING HERBICIDAL ACTIVITY” (BASF SE, priority 2013, published 2016).

Assays:
Type in all cases: in vivo
Setaria faberi = assay: greenhouse post-emergence herbicidal test, SETFA; conditions: application rate 0.125 kg/ha, scale from 0 to 100
Text: (§1) The seeds of the test plants were sown separately for each species. For the post-emergence treatment, the test plants were first grown to a height of 3 to 15 cm, depending on the plant habit, and only then treated with the active ingredients which had been suspended or emulsified in water. For this purpose, the test plants were either sown directly and grown in the same containers, or they were first grown separately as seedlings and transplanted into the test containers a few days prior to treatment. Depending on the species, the plants were kept at 10-25° C. or 20-35° C., respectively. The test period extended over 2 to 4 weeks. During this time, the plants were tended, and their response to the individual treatments was evaluated. Evaluation was carried out using a scale from 0 to 100. 100 means no emergence of the plants, or complete destruction of at least the aerial moieties, and 0 means no damage, or normal course of growth. A good herbicidal activity is given at values of at least 70 and a very good herbicidal activity is given at values of at least 85. The plants used in the greenhouse experiments were of the following species: [table]

Abutilon theophrasti = assay: greenhouse post-emergence herbicidal test, ABUTH; conditions: scale from 0 to 100
Text: as §1

Echinocloa crus-galli = assay: greenhouse post-emergence herbicidal test, ECHCG; conditions: scale from 0 to 100
Text: as §1

Amaranthus retroflexus = assay: greenhouse post-emergence herbicidal test, AMARE; conditions: application rate 0.271 kg/ha, scale from 0 to 100
Text: as §1

Setaria viridis = assay: greenhouse post-emergence herbicidal test, SETVI; conditions: scale from 0 to 100
Text: as §1

Capsella bursa-pastoris = assay: greenhouse post-emergence herbicidal test, CAPBP; conditions: application rate 0.25 kg/ha, scale from 0 to 100
Text: as §1

Polygonum convolvulus = assay: greenhouse post-emergence herbicidal test, POLCO; conditions: application rate 0.125 kg/ha, scale from 0 to 100
Text: as §1

Thlaspi arvense = assay: greenhouse post-emergence herbicidal test, THLAR; conditions: application rate 0.25 kg/ha, scale from 0 to 100
Text: as §1

Structure (SMILES): CC1(C)c2cccnc2C(O)=C(c2c(F)cnc(Cl)c2Br)S1(=O)=O [Compound I-28]
- herbicidal activity against SETFA (Setaria faberi): very good herbicidal activity (a very good herbicidal activity is given at values of at least 85)

Structure (SMILES): O=S1(=O)Cc2cccnc2C(O)=C1c1c(Cl)cncc1Cl [Compound I-1]
- herbicidal activity against ABUTH (Abutilon theophrasti; application rate 0.25 kg/ha): very good herbicidal activity (a very good herbicidal activity is given at values of at least 85)

Structure (SMILES): Cc1c(Cl)ncc(F)c1C1=C(O)c2ncccc2CS1(=O)=O [Compound I-36]
- herbicidal activity against ECHCG (Echinocloa crus-galli; application rate 1.0 kg/ha): good herbicidal activity (A good herbicidal activity is given at values of at least 70)

Structure (SMILES): O=S1(=O)Cc2cccnc2C(O)=C1c1c(Br)cnc(Cl)c1F [Compound I-40]
- herbicidal activity against ECHCG (Echinocloa crus-galli; application rate 0.125 kg/ha): good herbicidal activity (A good herbicidal activity is given at values of at least 70)

Structure (SMILES): COc1c(Cl)ncc(Cl)c1C1=C(OC(=O)C(C)(C)C)c2ncccc2C2(CC2)S1(=O)=O [Compound I-19]
- herbicidal activity against AMARE (Amaranthus retroflexus): very good herbicidal activity (a very good herbicidal activity is given at values of at least 85)
- herbicidal activity against SETVI (Setaria viridis; application rate 0.271 kg/ha): very good herbicidal activity (a very good herbicidal activity is given at values of at least 85)
- herbicidal activity against ABUTH (Abutilon theophrasti; application rate 0.271 kg/ha): very good herbicidal activity (a very good herbicidal activity is given at values of at least 85)

Structure (SMILES): CC(C)(C)C(=O)OC1=C(c2c(Cl)cnc(Cl)c2Cl)S(=O)(=O)C2(CC2)c2cccnc21 [Compound I-11]
- herbicidal activity against ECHCG (Echinocloa crus-galli; application rate 0.50 kg/ha): very good herbicidal activity (a very good herbicidal activity is given at values of at least 85)
- herbicidal activity against SETVI (Setaria viridis; application rate 0.50 kg/ha): very good herbicidal activity (a very good herbicidal activity is given at values of at least 85)
- herbicidal activity against ABUTH (Abutilon theophrasti; application rate 0.50 kg/ha): very good herbicidal activity (a very good herbicidal activity is given at values of at least 85)

Structure (SMILES): O=S1(=O)Cc2cccnc2C(O)=C1c1c(F)cnc(Cl)c1Br [Compound I-27]
- herbicidal activity against ECHCG (Echinocloa crus-galli; application rate 0.25 kg/ha): very good herbicidal activity (a very good herbicidal activity is given at values of at least 85)

Structure (SMILES): COc1c(Cl)ncc(Cl)c1C1=C(O)c2ncccc2C(C)(C)S1(=O)=O [Compound I-16]
- herbicidal activity against ABUTH (Abutilon theophrasti; application rate 0.125 kg/ha): very good herbicidal activity (a very good herbicidal activity is given at values of at least 85)

Structure (SMILES): COc1c(Cl)ncc(Cl)c1C1=C(OC(=O)C(C)(C)C)c2ncccc2CS1(=O)=O [Compound I-13]
- herbicidal activity against SETVI (Setaria viridis; application rate 0.25 kg/ha): good herbicidal activity (A good herbicidal activity is given at values of at least 70)

Structure (SMILES): CC1c2cccnc2C(OC(=O)C(C)(C)C)=C(c2c(Cl)cnc(Cl)c2Cl)S1(=O)=O (stereo not shown) [Compound I-7]
- herbicidal activity against CAPBP (Capsella bursa-pastoris): very good herbicidal activity (a very good herbicidal activity is given at values of at least 85)

Structure (SMILES): CC1(C)c2cccnc2C(O)=C(c2c(Cl)cnc(Cl)c2F)S1(=O)=O [Compound I-39]
- herbicidal activity against POLCO (Polygonum convolvulus): good herbicidal activity (A good herbicidal activity is given at values of at least 70)

Structure (SMILES): O=S1(=O)C(c2c(Cl)cnc(Cl)c2Cl)=C(O)c2ncccc2C12CC2 [Compound I-12]
- herbicidal activity against THLAR (Thlaspi arvense): very good herbicidal activity (a very good herbicidal activity is given at values of at least 85)
